In general, EC50 refers to the midpoint of the concentration-response curve.

Our source for the EC50 values is patent publication US20090221642A1, “MUSCARINIC RECEPTOR AGONISTS, COMPOSITIONS, METHODS OF TREATMENT THEREOF, AND PROCESSES FOR PREPARATION THEREOF-176” (AstraZeneca AB, priority 2008, published 2009).

Common to all, as to type: cell-based
Test [1] deals with T1, hM5 (human Muscarinic receptor subtype 5) (Homo sapiens, UniProt P08912).
T1 construct: expressed in transfected cells; host or cells: CHO cells (Chinese hamster ovary cells, ATCC)
T1 sequence (P08912 1-532): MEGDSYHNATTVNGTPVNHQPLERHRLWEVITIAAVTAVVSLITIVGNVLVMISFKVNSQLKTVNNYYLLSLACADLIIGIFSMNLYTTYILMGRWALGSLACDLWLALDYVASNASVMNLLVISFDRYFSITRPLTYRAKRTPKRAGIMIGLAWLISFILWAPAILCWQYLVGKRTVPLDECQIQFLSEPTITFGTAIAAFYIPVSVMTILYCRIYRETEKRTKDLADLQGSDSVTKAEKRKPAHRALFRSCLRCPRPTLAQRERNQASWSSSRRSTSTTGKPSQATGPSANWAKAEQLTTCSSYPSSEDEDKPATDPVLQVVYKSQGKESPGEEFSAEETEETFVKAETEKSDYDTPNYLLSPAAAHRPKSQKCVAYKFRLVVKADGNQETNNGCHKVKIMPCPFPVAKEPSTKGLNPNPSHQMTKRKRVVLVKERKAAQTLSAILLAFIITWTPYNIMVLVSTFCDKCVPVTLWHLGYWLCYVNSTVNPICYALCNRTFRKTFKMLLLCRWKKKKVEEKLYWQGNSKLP
The test is described as follows: Human M5 calcium mobilization FLIPR assay. Particulars: hM5 expressed in CHO cells, intracellular Ca2+ release. As to the method:
(§1) Human M1, rat M1, human M3 and human M5 Calcium Mobilization FLIPR™ Assay
(§2) The compound activity in the present invention (EC50 or IC50) is measured using a 384 plate-based imaging assay that monitors drug induced intracellular Ca^2+ release in whole cells. Activation of hM1 (human Muscarinic receptor subtype 1, gene bank access NM_000738), rM1 (rat Muscarinic receptor subtype 1, gene bank access NM_080773), hM3 (human Muscarinic receptor subtype 3, gene bank access NM_000740NM_000740) and hM5 (human Muscarinic receptor subtype 5, gene bank access NM_0121258), receptors expressed in CHO cells (Chinese hamster ovary cells, ATCC) is quantified in a Molecular Devices FLIPR II™ instrument as an increase in fluorescent signal. Inhibition of hM3 and hM5 by compounds is determined by the decrease in fluorescent signal in response to 2 nM acetylcholine activation.
(§3) Prior to experiment, the cell culture medium is removed from the plates by inversion. […] Plates are incubated at 37° C. for 60 minutes prior to start the experiment. The incubation is terminated by washing the cells four times in assay buffer, leaving a residual 25 μl buffer per well. Cell plates are then transferred to the FLIPR, ready for compound additions.
(§4) The day of experiment, acetylcholine and compounds are diluted in assay buffer in three-fold concentration range (10 points serial dilution) for addition by FLIPR instrument. For all calcium assays, a baseline reading is taken for 10 seconds followed by the addition of 12.5 μl of compounds, resulting in a total well volume of 37.5 μl. Data is collected every second for 60 pictures and then every 6 seconds for 20 pictures prior to the addition of agonist. For hM3 and hM5, before agonist addition, a second baseline reading is taken for 10 seconds followed by the addition of 12.5 μl of agonist or buffer, producing a final volume of 50 μl. After agonist stimulation, the FLIPR continues to collect data every second for 60 pictures and then every 6 seconds for 20 pictures. The fluorescence emission is read using filter 1 (emission 510-570 nm) by the FLIPR on board CCD camera.
(§5) Calcium mobilization output data are calculated as the maximal relative fluorescence unit (RFU) minus the minimal value for both compound and agonist reading frame (except for hM1 and rM1 using only the maximal RFU). Data are analyzed using sigmoidal fits of a non-linear curve-fitting program (XLfit version 4.2.2 Excel add-in version 4.2.2 build 18 math 1Q version 2.1.2 build 18). All pEC50 and plC50 values are reported as arithmetic means ±standard error of mean of ‘n’ independent experiments.
In general terms: A change in cytosolic calcium serves as a functional read-out for many receptors and channels.

The target of test [2] is T2, hM1 (human Muscarinic receptor subtype 1) (Homo sapiens, UniProt P11229).
T2 construct: expressed in transfected cells; host or cells: CHO cells (Chinese hamster ovary cells, ATCC)
T2 sequence (P11229 1-460): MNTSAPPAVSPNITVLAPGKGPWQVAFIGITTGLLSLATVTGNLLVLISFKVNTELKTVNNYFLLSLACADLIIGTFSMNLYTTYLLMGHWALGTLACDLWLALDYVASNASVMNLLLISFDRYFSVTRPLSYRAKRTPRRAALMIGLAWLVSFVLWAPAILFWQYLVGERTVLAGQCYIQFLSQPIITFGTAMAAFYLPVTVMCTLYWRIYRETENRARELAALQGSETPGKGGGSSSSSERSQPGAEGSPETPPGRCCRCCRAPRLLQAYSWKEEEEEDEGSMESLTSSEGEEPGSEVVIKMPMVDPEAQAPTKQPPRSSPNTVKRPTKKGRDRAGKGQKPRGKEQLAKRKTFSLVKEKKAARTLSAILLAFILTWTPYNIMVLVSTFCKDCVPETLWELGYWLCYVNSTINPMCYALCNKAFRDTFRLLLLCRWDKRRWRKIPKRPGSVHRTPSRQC
The experiment in a line: Human M1 calcium mobilization FLIPR assay. As to conditions: hM1 expressed in CHO cells, intracellular Ca2+ release. The method, boiled down: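 CHO cells expressing the receptor, dye-loaded at 37°C for 60 min, read on FLIPR at 510-570 nm. Agonism taken from compound-induced Ca2+ rise (max RFU for M1); M3/M5 inhibition measured against 2 nM acetylcholine using max minus min RFU. 10-point threefold dilutions, sigmoidal fits.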

In test [3] the target is T3, hM3 (human Muscarinic receptor subtype 3) (Homo sapiens, UniProt P20309).
T3 construct: expressed in transfected cells; host or cells: CHO cells (Chinese hamster ovary cells, ATCC)
T3 sequence (P20309 whole entry): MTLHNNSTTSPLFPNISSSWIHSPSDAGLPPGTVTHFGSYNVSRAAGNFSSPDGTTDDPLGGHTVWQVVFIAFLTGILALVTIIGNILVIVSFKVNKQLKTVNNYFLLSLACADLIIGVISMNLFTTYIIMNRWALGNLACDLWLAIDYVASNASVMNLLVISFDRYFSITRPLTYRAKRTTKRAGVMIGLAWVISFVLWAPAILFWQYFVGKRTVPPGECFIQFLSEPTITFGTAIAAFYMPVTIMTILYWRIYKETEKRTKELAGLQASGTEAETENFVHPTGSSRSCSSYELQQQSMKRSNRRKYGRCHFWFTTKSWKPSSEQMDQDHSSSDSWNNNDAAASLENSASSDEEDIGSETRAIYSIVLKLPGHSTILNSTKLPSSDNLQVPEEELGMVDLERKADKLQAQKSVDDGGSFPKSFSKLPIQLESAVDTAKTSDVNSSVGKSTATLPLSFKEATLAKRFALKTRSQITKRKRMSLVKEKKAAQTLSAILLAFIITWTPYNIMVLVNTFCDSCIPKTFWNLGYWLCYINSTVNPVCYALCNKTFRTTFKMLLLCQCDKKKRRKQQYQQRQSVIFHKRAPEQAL
The experiment in a line: Human M3 calcium mobilization FLIPR assay. Particulars: hM3 expressed in CHO cells, intracellular Ca2+ release. As to the method:
as §1, §2, §3, §4, §5

The structures appear in SMILES notation. Read-outs that look alike come from different tables or passages of the source.

Consider `CCOC(=O)N1CCC(C)(N2CCC(N3C(=O)Cc4ccc(F)cc43)CC2)C1` (single isomer, unassigned) [Example 74, ethyl 3-(4-(6-fluoro-2-oxoindolin-1-yl)piperidin-1-yl)-3-methylpyrrolidine-1-carboxylate], for which the EC50 in test [1] (read-out: hM5 EC50) was > 21200 nM; in test [2] (read-out: hM1 EC50), 10 nM; in test [3] (read-out: hM3 EC50), > 40000 nM.
The like results for `CCOC(=O)N1CCC(C)(N2CCC(N3C(=O)Cc4ccc(F)cc43)CC2)C1` (single isomer, unassigned) [Example 75, ethyl 3-(4-(6-fluoro-2-oxoindolin-1-yl)piperidin-1-yl)-3-methylpyrrolidine-1-carboxylate] were, in that order, > 27000 nM, 47.5 nM and > 40000 nM.
On to `CCOC(=O)N1CCC(C)(N2CCC(N3C(=O)Cc4cc(F)ccc43)CC2)C1` (single isomer, unassigned) [Example 79, ethyl 3-(4-(5-fluoro-2-oxoindolin-1-yl)piperidin-1-yl)-3-methylpyrrolidine-1-carboxylate], for which the EC50 is 2540 nM in test [1] (read-out: hM5 EC50), 9.2 nM in test [2] (read-out: hM1 EC50) and > 40000 nM in test [3] (read-out: hM3 EC50).
As to `CCOC(=O)N1CCC(C)(N2CCC(N3C(=O)Cc4cc(F)c(C)cc43)CC2)C1` (single isomer, unassigned) [Example 81, ethyl 3-(4-(5-fluoro-6-methyl-2-oxoindolin-1-yl)piperidin-1-yl)-3-methylpyrrolidine-1-carboxylate], the concentration for a half-maximal effect (EC50) in test [1] (read-out: hM5 EC50) was 1240 nM; in test [2] (read-out: hM1 EC50), 8.7 nM; in test [3] (read-out: hM3 EC50) it was > 13300 nM.
On to `COC(=O)N1CCC(C)(N2CCC(N3C(=O)Cc4cc(F)c(C)cc43)CC2)C1` (single isomer, unassigned) [Example 83, methyl 3-(4-(5-fluoro-6-methyl-2-oxoindolin-1-yl)piperidin-1-yl)-3-methylpyrrolidine-1-carboxylate], for which the EC50 is 3560 nM in test [1] (hM5 EC50 (nM)), 26.1 nM in test [2] (hM1 EC50 (nM)) and > 18400 nM in test [3] (hM3 EC50 (nM)).
Take `CCOC(=O)N1CCC(C)(N2CCC(n3c(=O)[nH]c4ccccc43)CC2)C1` (stereo not drawn) [Example 1, ethyl 3-methyl-3-(4-(2-oxo-2,3-dihydro-1H-benzo[d]imidazol-1-yl)piperidin-1-yl)pyrrolidine-1-carboxylate]: the EC50 in test [1] (read-out: hM5 EC50) was determined as 136 nM; in test [2] (read-out: hM1 EC50) it was 4.2 nM; in test [3] (read-out: hM3 EC50) it was 1400 nM.
The like results for `CCNC(=O)N1CCC(C)(N2CCC(n3c(=O)[nH]c4ccccc43)CC2)C1` (stereo not drawn) [Example 5, N-ethyl-3-methyl-3-(4-(2-oxo-2,3-dihydro-1H-benzo[d]imidazol-1-yl)piperidin-1-yl)pyrrolidine-1-carboxamide] were, in that order, > 2960 nM, 43.3 nM and > 40000 nM.
As to `CC1(N2CCC(n3c(=O)[nH]c4cc(F)ccc43)CC2)CCN(C(=O)OCCF)C1` (stereo not drawn) [Example 10, 2-fluoroethyl 3-(4-(5-fluoro-2-oxo-2,3-dihydro-1H-benzo[d]imidazol-1-yl)piperidin-1-yl)-3-methylpyrrolidine-1-carboxylate], the figures for the EC50 in test [1] (read-out: hM5 EC50), in test [2] (read-out: hM1 EC50) and in test [3] (read-out: hM3 EC50) were 537 nM, 26.3 nM and > 40000 nM, respectively.
